Usually EC50 stands for the concentration that produces a half-maximal response. One may read the IC50 as the concentration that inhibits the measured activity by half.

The record followed here is patent US20230233569A1 (Revolution Medicines, Inc., priority 2020, published 2023).

Structures are written as SMILES.

Assay [1] has as its system AsPC-1 (K-Ras G12D). Kind of assay: Potency assay: pERK. Conditions: Homo sapiens, ASPC1, read-out: pERK EC50. Type of assay: cell-based.
Assay [2] concerns the target KRAS G12C (Homo sapiens, UniProt P01116+P62937, G12C). Kind of assay: Ras-Raf disruption / FRET / MOA assay (BRAF RBD). Particulars: KRAS G12C FRET data IC50, Ras-Raf disruption, with Cyclophilin A. The class given is biochemical. A digest of the protocol: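 TR-FRET read-out after 1.5 h with anti-His Eu-W1024 (10 nM) and anti-GST APC (50 nM), following 3 h at 25 °C of compound (top 30 μM, 3-fold, 10 points) with 25 μM Cyclophilin A, 12.5 nM GMPPNP-loaded K-Ras G12C and 50 nM BRAF RBD; IC50 reported.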

Assay [3] deals with AsPC-1 (K-Ras G12D). Kind of assay: CellTiter-Glo cell viability assay. Type of assay: cell-based. Particulars: Homo sapiens, ASPC1, 120 h, read-out: AsPC-1 Cell Viability assay data IC50, K-Ras G12D, 5-day treatment. How it is done:
Determination of Cell Viability in RAS Mutant Cancer Cell Lines
Protocol: CellTiter-Glo® Cell Viability Assay
Note—The following protocol describes a procedure for monitoring cell viability of K-Ras mutant cancer cell lines in response to a compound of the invention. Other RAS isoforms may be employed, though the number of cells to be seeded will vary based on cell line used.
Test compounds (132.5 nL) were directly dispensed into the assay plates containing cells. […] On day 5, assay plates and their contents were equilibrated to room temperature for approximately 30 minutes. […] Luminescence was measured using the PerkinElmer Enspire. Data were normalized by the following: (Sample signal/Avg. DMSO)*100. The data were fit using a four-parameter logistic fit.
On the technique in general: In ATP-based viability assays light output follows the ATP content of the culture.

KRAS G12C, sequence (P01116 1-169 isoform P01116-2 G12C limits assumed): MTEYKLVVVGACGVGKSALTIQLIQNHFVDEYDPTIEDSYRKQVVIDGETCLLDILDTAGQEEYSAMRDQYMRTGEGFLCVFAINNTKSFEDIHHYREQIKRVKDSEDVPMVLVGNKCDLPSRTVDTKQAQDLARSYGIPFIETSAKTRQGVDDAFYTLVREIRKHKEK
KRAS G12C, sequence (P62937 whole entry): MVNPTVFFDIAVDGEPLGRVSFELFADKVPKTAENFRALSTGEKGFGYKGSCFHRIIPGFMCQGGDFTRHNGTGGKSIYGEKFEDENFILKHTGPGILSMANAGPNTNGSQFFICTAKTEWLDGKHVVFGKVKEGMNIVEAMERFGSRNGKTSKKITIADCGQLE

`CCn1c(-c2cnccc2COC)c2c3cc(ccc31)-c1cc(O)cc(c1)C[C@H](NC(=O)[C@H](C(C)C)N(C)C(=O)CN(C)C(=O)C1CN1)C(=O)N1CCC[C@H](N1)C(=O)OCC(C)(C)C2` (some centres unmarked) [Example 33]: the EC50 in assay [1] was below 5 µM. For the same compound, the half-maximal inhibitory concentration (IC50) in assay [2] fell in the range of 0.01 to 0.1 µM. As to `CCn1c(-c2cnccc2COC)c2c3cc(ccc31)-c1cc(O)cc(c1)C[C@H](NC(=O)[C@H](C(C)C)N(C)C(=O)CN(C)C(=O)[C@H]1N[C@H]1C(=O)OC)C(=O)N1CCC[C@H](N1)C(=O)OCC(C)(C)C2` [Example 51], in assay [1], the EC50 is below 5 µM. Also, the half-inhibitory concentration (IC50) in assay [3] is above 10 µM. The corresponding values for `CCn1c(-c2cnccc2COC)c2c3cc(ccc31)-c1cc(O)cc(c1)C[C@H](NC(=O)[C@H](C(C)C)N(C)C(=O)CN(C)C(=O)[C@H]1N[C@H]1C1CC1)C(=O)N1CCC[C@H](N1)C(=O)OCC(C)(C)C2` [Example 104] are below 5 µM and 1 to 10 µM.

On to `CCn1c(-c2cnccc2COC)c2c3cc(ccc31)-c1cc(O)cc(c1)C[C@H](NC(=O)[C@H](C(C)C)N(C)C(=O)CN(C)C(=O)[C@@H]1N[C@@H]1C)C(=O)N1CCC[C@H](N1)C(=O)OCC(C)(C)C2` [Example 105], for which the concentration giving a half-maximal response (EC50) in assay [1] is below 5 µM. Also, the IC50 in assay [3] lay within 1 to 10 µM. The corresponding values for `CCn1c(-c2cnccc2COC)c2c3cc(ccc31)-c1cc(O)cc(c1)C[C@H](NC(=O)[C@H](C(C)C)N(C)C(=O)CN(C)C(=O)[C@@H]1N[C@@H]1c1ccccc1)C(=O)N1CCC[C@H](N1)C(=O)OCC(C)(C)C2` [Example 110] are below 5 µM and 1 to 10 µM. `CCn1c(-c2cnccc2COC)c2c3cc(ccc31)-c1cc(O)cc(c1)C[C@H](NC(=O)[C@H](C(C)C)N(C)C(=O)CN(C)C(=O)[C@H]1N[C@H]1c1ccccc1)C(=O)N1CCC[C@H](N1)C(=O)OCC(C)(C)C2` [Example 116]: the IC50 in assay [3] is above 10 µM.
